Where two headings read alike, the source gives them in different places. Square brackets hold non-standard residues; d marks the D form. Ends that are not written are not given here. Abu = CC[C@H](N)C(=O)O
Columns and labels:
[1] = system: HUVEC cells; assay: Tube formation assay with HUVEC cells and VEGF; assay type: cell-based; conditions: HUVEC on Geltrex, nanobody/peptide 1000 nM, VEGF 50 ng/ml, 4–8 h, 37 °C; control with VEGF alone formed complete tubes; Image J
Method: About 50 µl of Geltrex LDEV lacking growth factor (Gibco, Invitrogen) were added to 96-well plate followed by a 30–60 min period of incubation at a temperature of 37 °C. One thousands nM of nanobody and peptide were added in two separate microtubes. Then, 50 ng/ml of VEGF were added to the tubes and incubated at a temperature of 37 °C for 1 h. Bevacizumab was as positive control. About 10^4 of HUVEC cells with DMEM culture media plus each microtube’s mixture were seeded in 96-well plates containing Geltrex. Plates were incubated for 4–8 h (temperature of 37 °C in the presence of 5% CO2). After incubation, cells were assessed according to their conditions of tube formation, and tube-like structures analysed by Image J software.
(§1) Prism 5.0 Software (GraphPad, San Diego, CA) was used for statistical analysis. T test was performed for comparison between two groups. The statistical were considered significant when p values < .05.

[2] = system: HUVEC cells; assay: MTT assay, inhibition of HUVEC proliferation; assay type: cell-based; conditions: for IC50: HUVEC growth; for inhibition of cell growth, 24 h / inhibition of cell growth, 48 h: 1000 nM
Method: The HUVEC cell line was purchased from the Pasteur Institute of Iran and was transferred in DMEM media enriched with 10% Foetal Bovine Serum (FBS, Gibco). The cells were then added into T25 cell culture flasks and incubated at a temperature of 37 °C in the presence of 5% CO2. After 3–5 days, confluency of the cells was assessed. At 90% of confluency, cells were removed from the flask by trypsin treatment until their use in following experiments.
About 10^4 of HUVEC cells were suspended in […] of culture media enriched with 2% FBS, and were then transferred to 96-well plates, followed by an incubation at a temperature of 37 °C for 2 h. After incubation at a temperature of 37 °C in the presence of 5% CO2, various concentrations of nanobody and peptide (0–1000 nM) were added to cells, followed by an incubation for 24 and 48 h, respectively. Bevacizumab was used as positive control. After incubation, an MTT (3–(4,5-Dimethylthiazol-2-yl)-2,5-Diphenyltetrazolium Bromide) solution was added to each well and incubated for 4 h. Thereafter, MTT was removed and DMSO (dimethylsulfoxide) was added to the wells. Plates were incubated on shaker for 30 min, and optical densities (OD) were then measured using a spectrophotometer (Epoch).
as §1

[3] = 0–1000 nM, 24 h, read-out: IC50 (24 h)
[4] = 0–1000 nM, 48 h, read-out: IC50 (48 h)

Substance	tube-like structures formed [1] [%]	IC50 [2, 3] [nM]	IC50 [2, 4] [nM]	dose dependence of inhibition of cellular proliferation (in words) ([2]; HUVEC, 0–1000 nM)	inhibition of cell growth, 24 h ([2]; HUVEC, 24 h) [%]	inhibition of cell growth, 48 h ([2]; HUVEC, 48 h) [%]	time dependence of effect (in words) ([2]; HUVEC, 24 and 48 h)
YY[Abu]AARAWSPYSSTVDAGDFRYWGQ-NH2 [peptide, designed 25-mer peptide from the CDR3 region of the VEGF nanobody]	35	350	200	dose dependent	77	91	time dependent
Bevacizumab: Bevacizumab (positive control)	20	200	150		87	97	
